{"source": "patent US20220031590A1", "about": "“ORAL CARE COMPOSITION” (SYMRISE AG, priority 2016, published 2022)", "test_system": "in-vitro oral biofilms", "test": "Effect of treatment with active agents on the composition of in-vitro oral biofilms (Calgary Biofilm Device, 16S rRNA pyrosequencing)", "type": "cell-based, oral bacteria", "description": "An in-vitro oral biofilm model for oral care product evaluation has recently been developed using the commercially available Calgary Biofilm Device (CBD) (Ceri, Olson, Stremick, Read, Morck, Buret, J Clin Microbiol. (1999) June; 37(6):1771-6) seeded with a natural saliva inoculum (Kistler, Pesaro, Wade, BMC Microbiol. (2015) December; 15(1):364). The pegs of the CBD were coated in hydroxyapatite to provide a surface that was chemically similar to tooth enamel. […] In addition, the composition of the biofilms was reproducible when derived from saliva of the same individuals at different time points.\nApproximately 5 ml of saliva was collected from each volunteer by expectoration into sterile universal tubes. The saliva samples were then pooled together in equal volumes. DNA was extracted from an aliquot of the pooled saliva and 200 μl was pipetted into each well of a microtitre plate, as required. The wells around the edge of the microplate were not used. The device lid, with 96 hydroxyapatite-coated pegs (to mimic teeth) was fitted so that the pegs were bathed in saliva. The CBD was then incubated for 18 hours at 37° C. in air+5% CO2 after which the lid was transferred to a new baseplate containing Brain Heart Infusion (BHI) broth (Fluka Analytical) supplemented with hog gastric mucin (1 g/L), haemin (10 mg/L), and vitamin K (0.5 mg/L). The growth medium was changed after every 3.5 days.\nThe active agents were prepared as follows: 5% or 7.5% stock solutions were made in absolute ethanol. The stock solutions were then diluted to working concentration in sterile PBS. Thymol was diluted down to a final concentration of 0.1% v/v and the composition according to the invention, comprising 95% carrier and 5% of the compound of formula A, was diluted to 0.15% v/v. The final test concentration of the compound of formula A was 0.0075 wt.-%.\nAt 7 days, biofilms were treated with the active agents or a negative PBS control. […]\nThe bacterial composition of the biofilms and saliva was determined using 454 pyrosequencing of partial 16S rRNA genes. […]"}
{"compound": "Cc1ccc(C(C)C)c(O)c1", "note": "[Thymol]", "values": [{"measurement": "PCoA clustering of treated biofilms relative to negative control", "setting": "community membership (Jaccard index) and structure (thetaYC)", "result": "did not cluster separately"}, {"measurement": "Mean no. of OTUs (sd)", "setting": "richness of the biofilm community, treated twice daily for seven days, thymol 0.1% v/v, composition 0.15% v/v, 10 replicates", "result": 250.8}, {"measurement": "Effect on the composition of in-vitro biofilms", "setting": "summary statement", "result": "did not have a significant effect"}]}
